Experimental findings from PubChem BioAssay (NCI) are described below.

Test systems include UACC-257 melanoma; SNB-75 CNS; BT-549 breast; M14 melanoma; HS 578T breast; HT29 colon; OVCAR-5 ovarian; KM12 colon; A549 NSCLC; SW-620 colon.
Assay in all cases: NCI anticancer screen, dose series, 48 h

Each structure is given as a SMILES string.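 48-hour exposure; five concentrations; linearly interpolated endpoints. Here, GI50 denotes the concentration required for 50% inhibition of growth. TGI denotes the concentration required for complete inhibition of growth.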 *1 amine or outer side, *2 acyl side, *3 side chain or, on linkers, in order; H or OH if unused. Where a SMILES comes first, the peptide text is derived from it. [ ]: non-standard residue; d: D form. ξ: configuration not given here. X21 = CC[C@@H](C)C(N[*:1])C(=O)[*:2]; ξR = N=C(N)NCCCC(N)C(=O)O; ξI = CCC(C)C(N)C(=O)O; ξL = CC(C)CC(N)C(=O)O; ξK = NCCCCC(N)C(=O)O; ξV = CC(C)C(N)C(=O)O; ξA = CC(N)C(=O)O

In the case of `COc1ccc(OC)c2c(=S)c3ccccc3[nH]c12`, the TGI in the test on UACC-257 melanoma, in the test with SNB-75 CNS, in the test on BT-549 breast, in the test with M14 melanoma, in the test with HS 578T breast and in the test with HT29 colon was above 100 µM each time. Further, the TGI in the test on OVCAR-5 ovarian, in the test with KM12 colon, in the test on A549 NSCLC and in the test with SW-620 colon was above 100 µM in each case.

Regarding `C=C1C(=O)O[C@H]2[C@H]1CC/C(COC(=O)c1ccccc1)=C\CC[C@@]1(C)O[C@@H]21`, the GI50 in the test on UACC-257 melanoma is 1.51 µM; with SNB-75 CNS, 5.7 µM; in the test on BT-549 breast it was 1.23 µM; in the test on M14 melanoma, 1.32 µM; in the test on HS 578T breast, 2.56 µM; in the test on HT29 colon, 0.412 µM. The GI50 with OVCAR-5 ovarian was 2 µM; in the test with KM12 colon it was 2.57 µM; in the test on A549 NSCLC, 3.33 µM; in the test with SW-620 colon, 0.407 µM. Moreover, the TGI in the test on UACC-257 melanoma is 3.37 µM; in the test with SNB-75 CNS it was 18.7 µM; with BT-549 breast it was 2.94 µM; in the test on M14 melanoma, 3.27 µM; in the test with HS 578T breast, 14.8 µM; in the test with HT29 colon, 2.1 µM. For the same compound, the TGI worked out at 5.36 µM in the test with OVCAR-5 ovarian, 8.42 µM in the test on KM12 colon, 13 µM with A549 NSCLC and 1.75 µM in the test with SW-620 colon.

Consider `CCSc1nnc(-c2ccc3ccccc3c2O)n1-c1ccc(Cl)cc1`, for which the GI50 in the test on UACC-257 melanoma is above 100 µM; in the test with SNB-75 CNS it was 65.1 µM; in the test with BT-549 breast, above 100 µM; in the test with M14 melanoma, 8.11 µM; in the test on HS 578T breast, 85.4 µM; in the test on HT29 colon it was 16 µM. Moreover, the GI50 in the test with OVCAR-5 ovarian is above 100 µM; in the test on KM12 colon, above 100 µM; with A549 NSCLC, 4.51 µM; in the test with SW-620 colon it was 4.28 µM. The TGI in the test on UACC-257 melanoma, in the test with SNB-75 CNS, in the test with BT-549 breast, with M14 melanoma, with HS 578T breast and in the test with HT29 colon was above 100 µM throughout. The TGI with OVCAR-5 ovarian, with KM12 colon, in the test with A549 NSCLC and in the test on SW-620 colon was above 100 µM each time.

With `CC(C)Nc1ncc2cc(Oc3ccc(F)cc3F)c(=O)n(C)c2n1`, the GI50 with UACC-257 melanoma was above 25 µM; in the test on SNB-75 CNS it was above 25 µM; with BT-549 breast, above 25 µM; in the test on M14 melanoma, above 25 µM; in the test with HS 578T breast, 11.6 µM; in the test on HT29 colon, above 25 µM. Besides, the GI50 with OVCAR-5 ovarian, with KM12 colon, in the test on A549 NSCLC and in the test with SW-620 colon was above 25 µM each time. The TGI in the test with UACC-257 melanoma, in the test with SNB-75 CNS, in the test with BT-549 breast, in the test with M14 melanoma, with HS 578T breast and in the test with HT29 colon was above 25 µM throughout. The TGI in the test on OVCAR-5 ovarian, in the test with KM12 colon, with A549 NSCLC and with SW-620 colon was above 25 µM in each case.

Turning to `CC(=O)OC1Oc2ccccc2-c2oc(=O)c(-c3cc4ccccc4oc3=O)cc21` (configuration not stated), the GI50 was 14.1 µM with UACC-257 melanoma; 17.3 µM in the test on SNB-75 CNS; 18.6 µM with BT-549 breast; 36.6 µM in the test with M14 melanoma; 30 µM with HS 578T breast; 33 µM in the test on HT29 colon. Moreover, the GI50 is 35 µM in the test on OVCAR-5 ovarian, 41.4 µM in the test on KM12 colon, 15.4 µM in the test on A549 NSCLC and 65 µM with SW-620 colon. In addition, the TGI was 36.6 µM with UACC-257 melanoma; 34.5 µM in the test on SNB-75 CNS; 40.1 µM with BT-549 breast; above 100 µM with M14 melanoma; 89.2 µM in the test with HS 578T breast; above 100 µM in the test on HT29 colon. The TGI with OVCAR-5 ovarian was above 100 µM; in the test on KM12 colon, above 100 µM; with A549 NSCLC, 33 µM; with SW-620 colon, above 100 µM.

For `Nc1ncnc2c1cnn2Cc1ccc(Cl)cc1`, the TGI in the test on UACC-257 melanoma, in the test on SNB-75 CNS, in the test with BT-549 breast, in the test with M14 melanoma, with HS 578T breast and in the test with HT29 colon was above 100 µM each time. For the same compound, the TGI in the test with OVCAR-5 ovarian, in the test on KM12 colon, in the test with A549 NSCLC and in the test with SW-620 colon was above 100 µM throughout. Also, the GI50 is 72.1 µM in the test with BT-549 breast and 44.8 µM in the test on OVCAR-5 ovarian.

Consider `Cn1c(=O)c(Oc2ccccc2)cc2cnc(NC3CCOCC3)nc21`, for which the GI50 with UACC-257 melanoma, with SNB-75 CNS, in the test with BT-549 breast, with M14 melanoma, with HS 578T breast and in the test on HT29 colon was above 25 µM in each case. The GI50 with OVCAR-5 ovarian, with KM12 colon, in the test on A549 NSCLC and with SW-620 colon was above 25 µM in each case. Also, the TGI in the test on UACC-257 melanoma, in the test with SNB-75 CNS, with BT-549 breast, with M14 melanoma, in the test with HS 578T breast and with HT29 colon was above 25 µM in each case. Further, the TGI in the test with OVCAR-5 ovarian, with KM12 colon, with A549 NSCLC and in the test with SW-620 colon was above 25 µM throughout.

Take `CCC(C)C1NC(=O)C(CC(C)C)NC(=O)C(C)NC(=O)C(C(C)C)NC(=O)C(CCCCN)NC(=O)C(CC(C)C)NC(=O)C(C(C)C)NC(=O)[C@H](C)NC(=O)C(C(C)CC)NC(=O)C(CCCN=C(N)N)NC(=O)C(CCCCN)NC(=O)C(CCCN=C(N)N)NC(=O)C(CCCCN)NC(=O)C([C@H](C)CC)NC(=O)C(CCCCN)NC1=O` (some centres not stated) (cyclo(A[ξV][ξL][ξK][ξV][ξA][ξL][ξI][ξK][X21][ξK][ξR][ξK][ξR][ξI])): the GI50 with UACC-257 melanoma is 0.476 µM; in the test on SNB-75 CNS, 1.34 µM; in the test with BT-549 breast it was 1.56 µM; in the test with M14 melanoma, 1.5 µM; in the test on HS 578T breast it was 1.72 µM; in the test on HT29 colon it was 2.59 µM. For the same compound, the GI50 in the test on OVCAR-5 ovarian was 1.94 µM; in the test on KM12 colon, 1.73 µM; with A549 NSCLC, 1.48 µM; in the test with SW-620 colon, 1.56 µM. Besides, the TGI in the test with UACC-257 melanoma came out at 2.58 µM; with SNB-75 CNS it was 3.24 µM; in the test on BT-549 breast it was 3.42 µM; in the test with M14 melanoma, 3.13 µM; in the test on HS 578T breast, 4.63 µM; in the test with HT29 colon, 10.3 µM. Further, the TGI in the test on OVCAR-5 ovarian was found to be 7.16 µM; in the test with KM12 colon it was 3.9 µM; with A549 NSCLC, 4.41 µM; in the test on SW-620 colon, 3.39 µM.
